From patent US12410124B2 (priority 2019, dated 2025)
Like-named read-outs stand apart in the source and are kept apart here.

Columns and labels:
hippocampus GFAP = test: Number of hippocampus astrocytes with GFAP positive expression in MPTP Parkinson's disease model mouse (immunohistochemistry); type: in vivo; settings: for Positive cell number (astrocytes with GFAP positive expression): hippocampus, MPTP Parkinson's disease model mouse, immunohistochemistry
Procedure: (§1) Neurotoxins can be used to establish PD animal models. Currently, 1-methyl-4-phenyl-1,2,3,6-tetrahydropyridine (MPTP) is the sole synthetic toxin which is recognized to induce PD symptoms in human and non-human primates and in mice. Using MPTP subacute modeling method, C57BL/6J male mice were intraperitoneally injected with MPTP 30 mg/kg, once a day for 5 consecutive days. The experiment animals were divided into blank control group, MPTP model group, and compound treatment group. For the […] compound treatment group, the compound was administrated by gavage for 21 consecutive days after the completion of modeling; for the MPTP model group, the normal saline was administrated by gavage for 21 consecutive days after the completion of modeling; and for the blank control group, the normal saline was first intraperitoneally injected for 5 days, and then administrated by gavage for 21 days.
(§2) Neuron-glial cell network homeostasis disorder is an important factor for the selective and progressive death of substantia nigra dopaminergic neurons in PD. In the neurotoxic effect of MPTP, the excessive activations of microglial cells and astrocytes produce a variety of inflammatory cytokines and reactive oxygen species (ROS). These inflammatory factors and ROS amplify their respective toxicities and mediate malignant feedback loop, causing a cascade inflammation response and aggravating the pathological process of PD. CD11b and GFAP are the marker proteins for activations of microglial cells and astrocytes, respectively. Therefore, the effect of the target compounds on the activations of the microglial cells and astrocytes in the substantia nigra, hippocampus, and midbrain areas of MPTP-induced PD mice can be investigated, to explore the mechanism of the anti-PD effect of the target compounds by inhibiting the neuroinflammation.
(§3) Half of experiment mice in each group were taken to separate the midbrain after perfusion and fixation. The tissue was trimmed, and the hippocampus area was taken to prepare paraffin sections. The GFAP immunohistochemical staining was performed for the statistics of the change in the number of astrocytes with GFAP positive expression. The experiment included blank control group, MPTP model group, positive control group (caffeic acid phenethyl ester, CAPE), prototype control group (styryl sulfone compounds 3B, 3C, 3D, and 3G, whose structures are shown as above), and target compound group.

midbrain pp38 = test: Midbrain pp38 protein expression in MPTP Parkinson's disease model mouse (western-blotting); type: in vivo; settings: midbrain total protein, GAPDH internal reference, gavage 21 days after MPTP modeling
Procedure: as §1
The p38 mitogen-activated protein kinase (p38 MAPK) is expressed in both neurons and glial cells, and is the intersection point of neuron-glial cell network information regulations. The activation of p38 signaling pathway is an important initiator of neuronal degeneration, which continuously induces the apoptosis of dopaminergic neurons in multiple ways. It has become a research hotspot for the treatment of PD. Studies have shown that the protective mechanism of CAPE against the death of primary cultured cerebellar granule neurons induced by glutamate lies in inhibiting the activation of p38 phosphorylation and in turn inhibiting the activation of the caspase 3 apoptotic pathway to prevent neuronal apoptosis. Therefore, the MPTP-induced PD mouse model can be used to investigate the inhibitory effect of the target compounds on the activation of p38 phosphorylation on the overall animal level.
Half of experiment mice in each group were taken to extract the total midbrain protein, and the change in the midbrain phosphorylated p38 protein expression was determined by western-blotting using GAPDH as the internal reference. The experiment included blank control group, MPTP model group, positive control group (caffeic acid phenethyl ester, CAPE), prototype control group (styryl sulfone compounds 3B, 3C, 3D, and 3G, whose structures are shown as above), and target compound group.

substantia nigra p-α-s = test: Substantia nigra p-α-s protein expression in MPTP Parkinson's disease model mouse (immunofluorescence); type: in vivo; settings: percentage of mean intensity of blank control group, gavage 21 days after MPTP modeling
Procedure: as §1
Alpha-synuclein is an “unfolded protein” in its natural state. It exists in a monomeric form, and participates in the physiological functions such as the release of neurotransmitters, the establishment of synaptic junctions, and the regulation of synaptic plasticity. Under pathological conditions, more than 90% of alpha-synuclein is phosphorylated at serine of position 129 and converted into phosphorylated alpha-synuclein (p-α-s), thereby forming Lewy bodies. The formation of Lewy bodies is one of the main pathological manifestations and pathological mechanisms for Parkinson's disease, and plays an important role in the formation and development of PD. The detection of the p-α-s expression in the midbrain and substantia nigra of PD model mice can evaluate the neuroprotective activity of the compound.
Half of experiment mice in each group were taken to separate the midbrain after perfusion and fixation. The tissue was trimmed, and the substantia nigra-striatum area was taken to prepare paraffin sections. The p-α-s immunofluorescence staining was performed in the brain sections of mice in each group. […] The experiment included blank control group, MPTP model group, positive control group (caffeic acid phenethyl ester, CAPE), prototype control group (styryl sulfone compounds 3B, 3C, 3D, and 3G, whose structures are shown as above), and target compound group.

[1] = biological target: acetylcholinesterase (AchE) (Homo sapiens, UniProt P22303); test: biochemical
Sequence of acetylcholinesterase (AchE) (P22303 32-614, species assumed): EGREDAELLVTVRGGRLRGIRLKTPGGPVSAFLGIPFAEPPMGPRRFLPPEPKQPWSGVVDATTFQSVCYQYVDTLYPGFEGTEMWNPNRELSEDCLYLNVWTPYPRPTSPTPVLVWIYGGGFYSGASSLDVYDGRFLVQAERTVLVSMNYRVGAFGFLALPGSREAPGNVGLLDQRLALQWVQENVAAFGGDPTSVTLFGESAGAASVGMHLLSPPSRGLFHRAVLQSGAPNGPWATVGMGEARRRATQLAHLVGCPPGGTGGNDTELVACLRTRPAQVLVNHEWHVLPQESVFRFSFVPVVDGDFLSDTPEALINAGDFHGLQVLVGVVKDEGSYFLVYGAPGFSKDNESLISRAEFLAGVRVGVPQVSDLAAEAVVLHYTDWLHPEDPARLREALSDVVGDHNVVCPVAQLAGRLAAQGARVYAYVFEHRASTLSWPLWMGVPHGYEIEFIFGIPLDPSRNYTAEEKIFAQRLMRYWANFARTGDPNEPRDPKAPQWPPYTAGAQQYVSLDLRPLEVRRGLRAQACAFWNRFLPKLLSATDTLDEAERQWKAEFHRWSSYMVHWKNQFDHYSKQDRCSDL
Procedure: The modified Ellman method was used to determine the inhibitory activity on acetylcholinesterase. The principle lies in that acetylthiocholine iodide is decomposed under the action of acetylcholinesterase (AchE) to generate thiocholine. The thiocholine is quickly reacted with DTNB as the colour-developing agent to generate a yellow substance with light absorption at 405 nm. To a 96-well microplate, 50 μl of enzyme reaction buffer, 125 μl of DTNB (3 mM), 25 μl of test sample or positive control drug, and 25 μl of AchE (0.2 U/ml) were successively added. After incubation at room temperature for 5 min, 25 μl of ATCI (15 mM) was added. After incubation at room temperature for 8 min, the absorbance value was determined at 405 nm with a microplate reader. A blank control group without enzyme (25 μl PBS instead of the sample to be tested) was also established.

substantia nigra CD11b = test: Number of substantia nigra microglial cells with CD11b positive expression in MPTP Parkinson's disease model mouse (immunohistochemistry); type: in vivo; settings: for Positive cell number (microglial cells with CD11b positive expression): substantia nigra, MPTP Parkinson's disease model mouse, immunohistochemistry
Procedure: as §1, §2
as §3, with “substantia nigra” for “hippocampus”, “CD11b” for “GFAP”, “microglial cells” for “astrocytes”

[2] = acetylcholinesterase, modified Ellman method, read-out: IC50

SMILES: CCN(CC)C(=O)Oc1ccc(/C=C/S(=O)(=O)Cc2ccc(C(C)(C)C)cc2)cc1OC(=O)N(CC)CC [Compound G1-1, (E)-4-{2-[(4-t-butylphenyl)mesyl]ethenyl}-1,2-phenylenebis(diethylcarbamate)]
- number of hippocampus astrocytes with GFAP positive expression compared with the styryl sulfone prototype compounds (hippocampus GFAP): significantly lower
- Positive cell number (astrocytes with GFAP positive expression) (hippocampus GFAP): 66 ± 4
- Expression (pp38/GAPDH) (midbrain pp38): 0.33 ± 0.07
- Expression (Immunofluorescence intensity %) (substantia nigra p-α-s): 77.36 ± 9.15%
- IC50 [1, 2]: 10.8 ± 2.13 µM
- number of substantia nigra microglial cells with CD11b positive expression compared with the styryl sulfone prototype compounds (substantia nigra CD11b): significantly lower
- Positive cell number (microglial cells with CD11b positive expression) (substantia nigra CD11b): 36 ± 3

SMILES: CCOC(CS(=O)(=O)/C=C/c1ccc(OC(C)=O)c(OC(=O)Nc2ccc(NC)cc2)c1)C(OCC)c1ccc(OCc2ccccc2)c(O)c1 (centres unmarked) [Compound H2-4, (E)-4-{2-[3-(4-benzyloxy-3-hydroxyphenyl)-2,3-diethoxypropyl]sulfonylethenyl}-2-[N-(4-methylaminophenyl)carbamoyloxy]phenyl acetate]
- Positive cell number (astrocytes with GFAP positive expression) (hippocampus GFAP): 61 ± 5
- Expression (pp38/GAPDH) (midbrain pp38): 0.43 ± 0.05
- Expression (Immunofluorescence intensity %) (substantia nigra p-α-s): 136.53 ± 8.94%
- IC50 [1, 2]: 11.3 ± 1.34 µM
- Positive cell number (microglial cells with CD11b positive expression) (substantia nigra CD11b): 29 ± 4

SMILES: COCCN(C)C(=O)Oc1cc(/C=C/S(=O)(=O)CCc2cccc(-c3ccc(C)o3)c2)ccc1OC(C)=O [Compound J1-4, (E)-2-[N-(2-methoxyethyl)-N-methylcarbamoyloxy]-4-{2-[3-(5-methylfur-2-yl)phenylethylsulfonyl]ethenyl}phenyl acetate]
- Positive cell number (astrocytes with GFAP positive expression) (hippocampus GFAP): 79 ± 2
- Expression (pp38/GAPDH) (midbrain pp38): 0.41 ± 0.08
- Expression (Immunofluorescence intensity %) (substantia nigra p-α-s): 116.95 ± 8.06%
- IC50 [1]: 8.54 ± 1.65 µM
- Positive cell number (microglial cells with CD11b positive expression) (substantia nigra CD11b): 24 ± 5

SMILES: CC(Br)C(Br)COc1cc(/C=C/S(=O)(=O)CCc2ccc(OCC(F)(F)F)cc2)ccc1OC(=O)Nc1ccsc1 (centres unmarked) [Compound K1-3, (E)-2-(2,3-dibromobutoxy)-4-{2-[4-(2,2,2-trifluoroethoxy)phenylethylsulfonyl]ethenyl}phenyl-N-(thien-3-yl)carbamate]
- Positive cell number (astrocytes with GFAP positive expression) (hippocampus GFAP): 65 ± 5
- Expression (pp38/GAPDH) (midbrain pp38): 0.35 ± 0.06
- Expression (Immunofluorescence intensity %) (substantia nigra p-α-s): 90.04 ± 7.43%
- IC50 [1, 2]: 22.3 ± 3.17 µM
- Positive cell number (microglial cells with CD11b positive expression) (substantia nigra CD11b): 32 ± 4

SMILES: C=CCOc1ccc(C/C=C/S(=O)(=O)/C=C/c2ccc(OC(C)=O)c(OC(=O)N(CC=C)CC=C)c2)cc1 [Compound K1-4, 4-{(E)-2-[(E)-3-(4-allyloxyphenyl)prop-1-en-1-yl]sulfonylethenyl}-2-(N,N-diallylcarbamoyloxy)phenyl acetate]
- Positive cell number (astrocytes with GFAP positive expression) (hippocampus GFAP): 71 ± 4
- Expression (pp38/GAPDH) (midbrain pp38): 0.44 ± 0.05
- Expression (Immunofluorescence intensity %) (substantia nigra p-α-s): 106.95 ± 9.27%
- IC50 [1, 2]: 16.9 ± 1.22 µM
- Positive cell number (microglial cells with CD11b positive expression) (substantia nigra CD11b): 30 ± 4

SMILES: COc1cc(/C=C/S(=O)(=O)Cc2cc(OC)c(OC)c(OC)c2)ccc1OC(=O)N(c1ccccc1)c1ccccc1 [Compound K3-3, (E)-2-methoxy-4-{2-[(3,4,5-trimethoxyphenyl)mesyl]ethenyl}-phenyl-N,N-diphenylcarbamate]
- Positive cell number (astrocytes with GFAP positive expression) (hippocampus GFAP): 69 ± 3
- Expression (pp38/GAPDH) (midbrain pp38): 0.55 ± 0.08
- Expression (Immunofluorescence intensity %) (substantia nigra p-α-s): 180.11 ± 13.51%
- IC50 [1, 2]: 38.3 ± 2.79 µM
- Positive cell number (microglial cells with CD11b positive expression) (substantia nigra CD11b): 39 ± 3

SMILES: O=C(NC(=O)C(F)(F)F)Oc1ccc(/C=C/S(=O)(=O)C(F)(F)c2ccc(Oc3ccccn3)cc2)cc1OC(=O)C(F)(F)C(F)(F)F [Compound L1-4, (E)-5-{2-[(4-[pyridin-2-yl-oxy]phenyl)difluoromethylsulfonyl]ethenyl}-2-[N-(2,2,2-trifluoroacetyl)carbamoyloxy]phenyl-2,2,3,3,3-pentafluoropropionate]
- Positive cell number (astrocytes with GFAP positive expression) (hippocampus GFAP): 76 ± 4
- Expression (pp38/GAPDH) (midbrain pp38): 0.28 ± 0.04
- Expression (Immunofluorescence intensity %) (substantia nigra p-α-s): 58.37 ± 6.11%
- IC50 [1, 2]: 9.48 ± 1.34 µM
- Positive cell number (microglial cells with CD11b positive expression) (substantia nigra CD11b): 35 ± 2

SMILES: CCN(C)C(=O)Oc1ccc(/C=C/S(=O)(=O)CC(c2ccc(-c3ccc(OC)c(OC)c3)cc2)[N+](=O)[O-])cc1OC(=O)N(C)CC (centres unmarked) [Compound M1-1, (E)-4-{2-[2-(3′,4′-dimethoxy-[1,1′-biphenyl]-4-yl)-2-nitroethylsulfonyl]ethenyl}-1,2-phenylenebis(N-ethyl-N-methylcarbamate)]
- Positive cell number (astrocytes with GFAP positive expression) (hippocampus GFAP): 51 ± 5
- Expression (pp38/GAPDH) (midbrain pp38): 0.40 ± 0.05
- Expression (Immunofluorescence intensity %) (substantia nigra p-α-s): 95.64 ± 9.25%
- IC50 [1]: 6.6 ± 0.71 µM
- Positive cell number (microglial cells with CD11b positive expression) (substantia nigra CD11b): 20 ± 3

SMILES: CN(C)c1ccc(CC(=O)Oc2cc(/C=C/S(=O)(=O)C(Br)c3ccc(Cc4ccc(N(C)C)cc4)cc3)ccc2OC(=O)N2CCCC2C(F)(F)F)cc1 (centres unmarked) [Compound M1-5]
- Positive cell number (astrocytes with GFAP positive expression) (hippocampus GFAP): 67 ± 6
- Expression (pp38/GAPDH) (midbrain pp38): 0.29 ± 0.06
- Expression (Immunofluorescence intensity %) (substantia nigra p-α-s): 67.90 ± 3.29%
- IC50 [1, 2]: 31.3 ± 4.63 µM
- Positive cell number (microglial cells with CD11b positive expression) (substantia nigra CD11b): 28 ± 3
